Source: publication PMC7463537, “Synthesis and Evaluation of Antimicrobial and Cytotoxic Activity of Oxathiine-Fused Quinone-Thioglucoside Conjugates of Substituted 1,4-Naphthoquinones” (Molecules, 2020)

Legend:
[1] = tested on: C. albicans KMM 453; assay: Agar diffusion method, C. albicans; format: cell-based; details: Candida albicans, read-out: Diameter of Zone Inhibition, C. albicans; for zone of inhibition at 100 µg/disc: KMM453, 48 h, 100 µg/well, 48 h at 28 °C
Method: (§1) Elyakov Pacific Institute of Bioorganic Chemistry, Far East Branch, Russian Academy of Sciences. Test substances were dissolved in DMSO at concentrations of 1.0, 0.1, and 0.01 mg/mL. All strains were grown on trypticase-soy agar TSA (BBL) at 37 °C. […] After incubation of the dishes at 37 °C for 24 h (for bacteria) and 48 h (for the fungus) at 28 °C, the diameters of the growth inhibition zones of pathogenic microorganisms (mm) were measured, including the diameter of the wells. Commercial antibacterial drugs (vancomicin and gentamicin) and antifungal (clotrimazol) drugs were used as positive controls.

[2] = tested on: S. aureus ATCC 21027; assay: Agar diffusion method, S. aureus; format: cell-based, Staphylococcus aureus; set-up: key to Diameter of Zone Inhibition, S. aureus: Zones within 20–40 mm mean strong antibiotic activity; zones up to 20 mm—moderate; ≤10 mm—weak; +—insignificant; details: for zone of inhibition at 100 µg/disc: ATCC21027, 24 h
Method: as §1

[3] = tested on: B. cereus ATCC 10702; assay: Agar diffusion method, B. cereus; format: cell-based, Bacillus cereus; details: for zone of inhibition at 100 µg/disc: ATCC10702, 24 h, 100 µg/well, 24 h, incl. 7 mm well
Method: as §1

[4] = tested on: P. aeruginosa ATCC 27853; assay: Agar diffusion method, P. aeruginosa; format: cell-based, Pseudomonas aeruginosa; details: for zone of inhibition at 100 µg/disc: ATCC27853, 100 µg/well
Method: as §1

[5] = tested on: E. coli K-12; assay: Agar diffusion method, E. coli; format: cell-based, Escherichia coli; details: for zone of inhibition at 100 µg/disc: 100 µg/well
Method: as §1

[6] = tested on: human cervical cancer (HeLa); assay: Cytotoxicity, MTT assay, HeLa cells; details: for EC50: Homo sapiens, HeLa, 24 h, read-out: Cytotoxicity (EC50), HeLa
[7] = tested on: mouse neuroblastoma (Neuro 2a); assay: Cytotoxicity, MTT assay, Neuro 2a cells; details: for EC50: N2a, 24 h, read-out: Cytotoxicity (EC50), Neuro 2a
[8] = Cytotoxicity, MTT assay, Jb6 Cl 41-5a normal epithelial cells; details: mouse, Jb6 Cl 41-5a normal epithelial cells
[9] = tested on: mouse ascites Ehrlich carcinoma; assay: Cytotoxicity, nonspecific esterase (FDA) assay, ascites Ehrlich carcinoma cells; details: for EC50: Mus musculus, Ehrlich, 24 h, read-out: Cytotoxicity (EC50), Ascites Ehrlich Carcinoma
[10] = Staphylococcus aureus, 100 µg/well, 24 h, incl. 7 mm well, read-out: Diameter of Zone Inhibition, S. aureus
[11] = Bacillus cereus, read-out: Diameter of Zone Inhibition, B. cereus
[12] = Pseudomonas aeruginosa, read-out: Diameter of Zone Inhibition, P. aeruginosa
[13] = Escherichia coli, K12, read-out: Diameter of Zone Inhibition, E. coli
[14] = SI = EC50 (Jb6 Cl 41-5a normal cells)/EC50 (tumor cells)

| melting point | Structure (SMILES) | zone of inhibition at 100 µg/disc [2, 10] | zone of inhibition at 100 µg/disc [3, 11] | zone of inhibition at 100 µg/disc [4, 12] | zone of inhibition at 100 µg/disc [5, 13] | zone of inhibition at 100 µg/disc [1] | EC50 [6] | EC50 [7] | EC50 at 24 h [8] | EC50 [9] | other results |
| --- | --- | --- | --- | --- | --- | --- | --- | --- | --- | --- | --- |
|  | Clc1ccccc1C(c1ccccc1)(c1ccccc1)n1ccnc1 [Clotrimazol (disk), reference compound] |  |  |  |  |  |  |  |  |  | zone of inhibition at 10 µg/disc ([1]; KMM453, 10 µg (disk)): 15 ± 2 mm |
| 332 to 335 °C | COc1ccc(OC)c2c1C(=O)C1=C(S[C@@H]3O[C@H](CO)[C@@H](O)[C@H](O)[C@H]3O1)C2=O [Compound 17a, (2R,3S,4S,4aR,12aS)-3,4-Dihydroxy-2-hydroxymethyl-7,10-dimethoxy-3,4,4a,12a-tetrahydro-2H-naphtho[2,3-b]pyrano[2,3-e][2,5]oxathiine-6,11-dione] | 0 mm | 0 mm | 0 mm | 0 mm | 0 mm | > 25 µM | > 25 µM | > 25 µM | > 25 µM |  |
| 329 to 332 °C | COc1ccc(OC)c2c1C(=O)C1=C(S[C@@H]3OC[C@@H](O)[C@H](O)[C@H]3O1)C2=O [Compound 17c, (3R,4S,4aR,12aS)-3,4-Dihydroxy-7,10-dimethoxy-3,4,4a,12a-tetrahydro-2H-naphtho[2,3-b]pyrano[2,3-e][2,5]oxathiine-6,11-dione] | 0 mm | 0 mm | 0 mm | 0 mm | 0 mm | > 25 µM | > 25 µM | > 25 µM | > 25 µM |  |
| 317 to 320 °C | COc1ccc(OC)c2c1C(=O)C1=C(S[C@@H]3OC[C@H](O)[C@H](O)[C@H]3O1)C2=O [Compound 17d, (3S,4S,4aR,12aS)-3,4-Dihydroxy-7,10-dimethoxy-3,4,4a,12a-tetrahydro-2H-naphtho[2,3-b]pyrano[2,3-e][2,5]oxathiine-6,11-dione] | 0 mm | 0 mm | 0 mm | 0 mm | ≤ 10 mm | > 25 µM | > 25 µM | > 25 µM | > 25 µM |  |
| 222 to 224 °C | COc1c(Cl)c(Cl)c(OC)c2c1C(=O)C1=C(S[C@@H]3O[C@H](CO)[C@@H](O)[C@H](O)[C@H]3O1)C2=O [Compound 18a, (2R,3S,4S,4aR,12aS)-8,9-Dichloro-3,4-dihydroxy-2-hydroxymethyl-7,10-dimethoxy-3,4,4a,12a-tetrahydro-2H-naphtho[2,3-b]pyrano[2,3-e][2,5]oxathiine-6,11-dione] |  | 0 mm | 0 mm | 0 mm | 0 mm | 10.9 µM | 2.4 µM | 1.5 µM | 8.8 µM | Diameter of Zone Inhibition, S. aureus ([2]; 100 µg/well, 24 h, incl. 7 mm well): +; Selectivity Index (SI), HeLa [6, 14]: 0.1; Selectivity Index (SI), Neuro-2a [7, 14]: 0.6; Selectivity Index (SI), Ascitic Ehrlich Carcinoma [9, 14]: 0.2 |
|  | CNC(C)C1CCC(N)C(OC2C(N)CC(N)C(OC3OCC(C)(O)C(NC)C3O)C2O)O1 (stereo not shown) [Gentamicin (disk), reference compound] |  |  |  |  |  |  |  |  |  | zone of inhibition at 10 µg/disc ([2]; Staphylococcus aureus, ATCC21027, 10 µg/well (gentamicin: disk), read-out: Diameter of Zone Inhibition, S. aureus): 25 ± 2 mm; zone of inhibition at 10 µg/disc ([3]; Bacillus cereus, ATCC10702, 10 µg/well (gentamicin: disk), read-out: Diameter of Zone Inhibition, B. cereus): 25 ± 1 mm; zone of inhibition at 10 µg/disc ([4]; Pseudomonas aeruginosa, ATCC27853, 10 µg (disk), read-out: Diameter of Zone Inhibition, P. aeruginosa): 18 ± 2 mm; zone of inhibition at 10 µg/disc ([5]; Escherichia coli, K12, 10 µg (disk), read-out: Diameter of Zone Inhibition, E. coli): 22 ± 3 mm |
|  | CN[C@H](CC(C)C)C(=O)N[C@H]1C(=O)N[C@@H](CC(N)=O)C(=O)N[C@H]2C(=O)N[C@H]3C(=O)N[C@H](C(=O)N[C@H](C(=O)O)c4cc(O)cc(O)c4-c4cc3ccc4O)[C@H](O)c3ccc(c(Cl)c3)Oc3cc2cc(c3O[C@@H]2O[C@H](CO)[C@@H](O)[C@H](O)[C@H]2O[C@H]2C[C@](C)(N)[C@H](O)[C@H](C)O2)Oc2ccc(cc2Cl)[C@H]1O [Vancomicin (disk), reference compound] |  |  |  |  |  |  |  |  |  | Diameter of Zone Inhibition, S. aureus ([2]; 30 µg (disk)): 20 ± 2 mm; Diameter of Zone Inhibition, B. cereus ([3]; 30 µg (disk)): 20 ± 3 mm; Diameter of Zone Inhibition, P. aeruginosa ([4]; 30 µg (disk)): 0 mm; Diameter of Zone Inhibition, E. coli ([5]; 30 µg (disk)): 0 mm |
